Each structure is given as a SMILES string.

Common to all, as to test: Western blot dose-response degradation in homozygous HiBiT-BromoTag-BRD4 HEK293 cells
A general note: In western blotting, separated proteins are transferred to a membrane and probed.

For assay [1], the target named is T1, BromoTag-BRD4 (BRD4^Short) (Homo sapiens, UniProt O60885, L387A).
T1 construct: homozygous endogenous HiBiT-BromoTag-BRD4 HEK293 cell line; endogenous in cells; host or cells: HEK293, homozygous CRISPR knock-in eGFP-IRES-HiBiT-BromoTag-BRD4
The class given is cell-based. The method, then: (§1) Cell Culture HEK293 cells were obtained from ATCC. HEK293 was cultured in DMEM supplemented with 10% (v/v) fetal bovine serum (FBS), 1% […] and 1% (v/v) penicillin/streptomycin (pen/strep) at 37 °C, 5% CO2, and 95% humidity.
(§2) To perform the single gRNA Cas9 CRISPR KI of BromoTag into BRD4 in HEK293. HEK293 cells were plated at a density of 5 × 10^5 cells into individual wells of a six-well plate in 1 mL of DMEM and left overnight to adhere to the plate. The cells were subsequently transfected the following day using GeneJuice lipofectamine reagent simultaneously with a custom donor vector pMK-RQ containing 500bp BRD4 homology arms on either side of an eGFP-IRES-HiBiT-BromoTag and two individual pBABED vector harboring U6-sgRNA and puromycin expression cassettes containing two BRD4 targeting gRNA sequences: […] and […]. The construction of these plasmids was performed by Thomas Macartney of the MRC-PPU CRISPR services. The following day cells were washed with PBS before fresh DMEM media was applied cells were left to recover in DMEM for a further 4 days. Cells were subsequently FACS sorted for GFP expression and expanded from single cells. HEK293 clones were validated for eGFP-IRES-HiBIT-BromoTag-BRD4 integration via WB, junction PCR and sequencing.
(§3) Dose–response degradation assay 97 of was performed on the genotype verified eGFP-IRES-HiBIT-BromoTag-BRD4 homozygous HEK293 cell lines. The cells were plated at a density of 5 × 10^5 cells per well of a six well plate a day prior to initiation of the experiment. 97 was dissolved into a 10 mM concentrated stock solution in DMSO from which 97 was further diluted to a working concentration range of 10 μM to 10 pM in DMEM and was subsequently added to cells. Additional controls including, vehicle, AGB1 (1 μM) and cis-AGB1 (1 μM) were similarly added to cells alongside 97 treatments. Cells were left to incubate with compound for 4 h at 37 °C, 5% CO2, and 95% humidity. Cells were then subsequently washed twice with PBS before being harvested in RIPA buffer supplemented with protease inhibitor cocktail and Benzonase Nuclease before being store at −20 °C.
(§4) Total protein quantity was determined using the BCA protein assay. Protein concentration was determined using the BCA assay. Samples were then prepared in LDS buffer and subsequently loaded onto NuPAGE 4–12% Bis-Tris Midi gels, followed by the transfer of the proteins onto nitrocellulose membranes. The membranes were blocked for 1 h prior to incubation with the primary antibodies using 5% Milk TBST. Membranes were incubated at 4 °C in either BRD4(Ab128874), BRD3(Ab50818) or BRD2(Ab139690) primary antibody overnight. Following overnight incubation, the membranes were incubated with complementary IRDye 800CW secondary antibodies and a hFAB Rhodamine Anti-Tubulin Primary Antibody (loading control) for 1 h and then imaged with a Bio-Rad imager. All Western blots were analyzed for band intensities using Image Lab (Bio-Rad). The data extracted from these blots were then plotted and analyzed using Prism (v. 10.2.2, GraphPad). All Western blotting figures were developed in Adobe Illustrator.

Assay [2] has as its system BromoTag-BRD4 (BRD4^Long). The class given is cell-based, human. The conditions noted are these: for pDC50 BRD4Long: homozygous BromoTag-BRD4 HEK293 cells (Table S8). The method, then: as §1, §2, §3
Total protein quantity was determined using the BCA protein assay. Protein concentration was determined using the BCA assay. Samples were then prepared in LDS buffer and subsequently loaded onto NuPAGE 4–12% Bis-Tris Midi gels, followed by the transfer of the proteins onto nitrocellulose membranes. The membranes were blocked for 1 h prior to incubation with the primary antibodies using 5% Milk TBST. […] All Western blots were analyzed for band intensities using Image Lab (Bio-Rad). The data extracted from these blots were then plotted and analyzed using Prism (v. 10.2.2, GraphPad). […]

A further assay addresses T2, BRD3 (Homo sapiens, UniProt Q15059).
T2 construct: HiBiT, is appended to the N-terminus of endogenous BRD2, BRD3, and BRD4; endogenous in cells
The class given is cell-based. As to the method: as §1, §2, §3, §4

The next assay has as its target T3, BRD2 (Homo sapiens, UniProt P25440).
T3 construct: HiBiT, is appended to the N-terminus of endogenous BRD2, BRD3, and BRD4; endogenous in cells
The assay is classed as cell-based. The method, then: as §1, §2, §3, §4

In the next assay the target is CRBN (Homo sapiens, UniProt Q96SW2). The assay is classed as cell-based. Details: Western blot data for BET, CRBN and VHL protein levels; endogenous in cells; host or cells: HEK293 (ATCC). As to the method:
as §1, §2
Dose–response degradation assay 97 of was performed on the genotype verified eGFP-IRES-HiBIT-BromoTag-BRD4 homozygous HEK293 cell lines. The cells were plated at a density of 5 × 10^5 cells per well of a six well plate a day prior to initiation of the experiment. 97 was dissolved into a 10 mM concentrated stock solution in DMSO from which 97 was further diluted to a working concentration range of 10 μM to 10 pM in DMEM and was subsequently added to cells. […]
Total protein quantity was determined using the BCA protein assay. Protein concentration was determined using the BCA assay. […] All Western blots were analyzed for band intensities using Image Lab (Bio-Rad). The data extracted from these blots were then plotted and analyzed using Prism (v. 10.2.2, GraphPad). […]

The mark [3] stands for this setting: homozygous BromoTag-BRD4 HEK293 cells (Table S8).
Where [4] appears, read: HiBiT-BromoTag-BRD4 HEK293, 4 hours (Figure 12).
Where [5] appears, read: HiBiT-BromoTag-BRD4 HEK293, 4 hours, n = 1 (Figure 12).

T3 sequence (P25440 whole entry): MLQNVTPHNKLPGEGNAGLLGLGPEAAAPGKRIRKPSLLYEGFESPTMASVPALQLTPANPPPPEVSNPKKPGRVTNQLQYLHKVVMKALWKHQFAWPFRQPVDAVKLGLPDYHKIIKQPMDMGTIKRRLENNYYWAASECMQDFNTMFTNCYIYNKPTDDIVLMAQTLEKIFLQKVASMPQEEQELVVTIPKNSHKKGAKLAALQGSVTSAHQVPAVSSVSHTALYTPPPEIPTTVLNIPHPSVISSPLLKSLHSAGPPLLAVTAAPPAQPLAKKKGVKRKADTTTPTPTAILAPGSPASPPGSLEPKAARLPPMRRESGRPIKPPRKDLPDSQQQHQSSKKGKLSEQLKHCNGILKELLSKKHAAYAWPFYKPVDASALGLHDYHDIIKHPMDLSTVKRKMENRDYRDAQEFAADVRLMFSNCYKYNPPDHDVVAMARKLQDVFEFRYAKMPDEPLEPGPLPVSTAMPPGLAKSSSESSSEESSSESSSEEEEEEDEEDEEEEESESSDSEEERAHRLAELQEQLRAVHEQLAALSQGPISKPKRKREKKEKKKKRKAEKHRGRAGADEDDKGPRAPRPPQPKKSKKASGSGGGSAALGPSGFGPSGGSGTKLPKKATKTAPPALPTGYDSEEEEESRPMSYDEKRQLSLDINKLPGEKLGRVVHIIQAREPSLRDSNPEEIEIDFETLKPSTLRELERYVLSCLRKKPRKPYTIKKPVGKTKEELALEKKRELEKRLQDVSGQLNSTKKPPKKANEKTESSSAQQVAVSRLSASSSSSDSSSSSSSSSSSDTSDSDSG
CRBN, sequence (Q96SW2 whole entry): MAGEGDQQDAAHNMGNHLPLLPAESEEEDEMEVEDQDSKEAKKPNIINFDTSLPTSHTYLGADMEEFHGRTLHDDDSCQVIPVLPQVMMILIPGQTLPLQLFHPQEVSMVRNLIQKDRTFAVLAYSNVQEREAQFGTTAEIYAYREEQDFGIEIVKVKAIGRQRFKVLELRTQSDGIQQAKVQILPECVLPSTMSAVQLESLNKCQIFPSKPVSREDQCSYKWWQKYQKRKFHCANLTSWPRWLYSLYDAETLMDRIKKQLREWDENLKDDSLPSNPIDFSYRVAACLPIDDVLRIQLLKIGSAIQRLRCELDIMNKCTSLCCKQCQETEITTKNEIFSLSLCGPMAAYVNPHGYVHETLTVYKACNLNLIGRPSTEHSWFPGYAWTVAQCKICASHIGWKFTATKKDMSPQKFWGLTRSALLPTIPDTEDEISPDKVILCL
T2 sequence (Q15059 whole entry): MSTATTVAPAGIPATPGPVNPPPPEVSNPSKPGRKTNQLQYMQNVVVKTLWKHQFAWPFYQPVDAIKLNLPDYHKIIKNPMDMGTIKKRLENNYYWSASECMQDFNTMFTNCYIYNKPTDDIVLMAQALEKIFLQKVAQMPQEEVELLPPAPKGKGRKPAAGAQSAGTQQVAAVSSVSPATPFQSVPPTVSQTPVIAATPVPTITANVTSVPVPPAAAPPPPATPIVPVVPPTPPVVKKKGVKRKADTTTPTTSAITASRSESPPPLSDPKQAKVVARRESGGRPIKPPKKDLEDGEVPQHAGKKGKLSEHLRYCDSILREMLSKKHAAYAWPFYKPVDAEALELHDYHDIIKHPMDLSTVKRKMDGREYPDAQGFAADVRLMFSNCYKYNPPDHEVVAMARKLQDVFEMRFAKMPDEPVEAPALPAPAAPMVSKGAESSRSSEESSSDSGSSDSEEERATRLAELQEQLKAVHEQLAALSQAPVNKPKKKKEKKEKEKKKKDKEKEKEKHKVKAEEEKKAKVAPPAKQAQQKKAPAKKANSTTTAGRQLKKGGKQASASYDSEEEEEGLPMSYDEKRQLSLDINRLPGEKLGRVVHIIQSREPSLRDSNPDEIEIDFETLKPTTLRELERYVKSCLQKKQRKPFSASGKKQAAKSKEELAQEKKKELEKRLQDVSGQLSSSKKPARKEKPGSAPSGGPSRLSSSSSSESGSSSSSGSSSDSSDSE

With `CC[C@@H](C(=O)OCCOCCOCCOCC(=O)N[C@H](C(=O)N1C[C@H](O)C[C@H]1C(=O)NCc1ccc(-c2scnc2C)cc1)C(C)(C)C)[C@@H]1N=C(c2ccc(Cl)cc2)c2c(sc(C)c2C)-n2c(C)nnc21` [AGB1, reference compound], in assay [1] (setting [3]), the “Dmax % BRD4Short” value was found to be 11% and the “pDC50 BRD4Short” value is 8.6 ± 0.1. In assay [2], the “pDC50 BRD4Long” value is reported as 8.0 ± 0.2.
As a reminder, the DC50 is the midpoint of the concentration-degradation curve. Low values mean degradation at low concentration, high ones degradation only at high concentration. A word on the Dmax: it is the greatest extent of degradation seen. In the case of `CC[C@@H](C(=O)OCCOCCOCCOCC(C)(COCCOCCOCCNc1cc2c(cc1F)C(=O)N(C1CCC(=O)NC1=O)C2=O)COCC(=O)N[C@H](C(=O)N1C[C@H](O)C[C@H]1C(=O)N[C@@H](C)c1ccc(-c2scnc2C)cc1)C(C)(C)C)[C@@H]1N=C(c2ccc(Cl)cc2)c2c(sc(C)c2C)-n2c(C)nnc21` (mixture of isomers) [AB3145 (97), (17S)-11-((2-(2-(2-((2-(2,6-dioxopiperidin-3-yl)-6-fluoro-1,3-dioxoisoindolin-5-yl)amino)ethoxy)ethoxy)ethoxy)methyl)-17-((2S,4R)-4-hydroxy-2-(((S)-1-(4-(4-methylthiazol-5-yl)phenyl)ethyl)carbamoyl)pyrrolidine-1-carbonyl)-11,18,18-trimethyl-15-oxo-3,6,9,13-tetraoxa-16-azanonadecyl (2R)-2-((S)-4-(4-chlorophenyl)-2,3,9-trimethyl-6H-thieno[3,2-f][1,2,4]triazolo[4,3-a][1,4]diazepin-6-yl)butanoate], at BRD3 (DC50 ratio), the “selectivity window of BromoTag-BRD4 degradation over BRD3” value came out at 250 fold. Further, the DC50 at BRD3 (setting [4]) came out at 33 nM; at BRD2 (setting [4]), 770 nM; in assay [1] (setting [4]) it was 0.14 nM; on CRBN (setting [5]) it was 2.1 nM; in assay [2] (setting [4]), 0.12 nM. The Dmax at BRD3 (setting [4]) was determined as 79%; at BRD2 (setting [4]), 50%; on BRD2 (setting [3]), 56%; in assay [1] (setting [4]), 86%; at CRBN (setting [5]), 77%. At BRD3 (setting [3]), the “pDC50 BRD3” value was 7.5 ± 0.4. In addition, the “selectivity window of BromoTag-BRD4 degradation over BRD2” value on BRD2 (DC50 ratio) is 6000 fold. The “pDC50 BRD4Short” value in assay [1] (setting [3]) was found to be 9.9 ± 0.1. Moreover, on CRBN (DC50 2.1 nM vs 75 nM), the “fold more potent degradation of CRBN than 27” value is approximately 35 fold. In assay [2] (setting [4]), the “Dmax BRD4^Long” value came to 85%. In assay [2], the “pDC50 BRD4Long” value was determined as 9.9 ± 0.6.
